Results reported in patent publication US20220409554A1, “ASCORBIC ACID AND QUINONE COMPOUND FOR CANCER TREATMENT” (IC-MedTech Corp., priority 2021, published 2022).
Where two headings read alike, the source gives them in different places.

What was measured:
Type in all cases: cell-based
[1] = test system: Leukemia T lymphocytes (Jurkat); experiment: Antiproliferative activity, trypan blue staining and automated counting; conditions: Homo sapiens
Description: (§1) The antiproliferative activity of vitamin C (L-ascorbic acid) and/or compound A6 was determined in Colon26 (colon cancer), GS9L (glioblastoma), Jurkat (leukemia), MCF7 (breast cancer), and U87MG (glioblastoma). Jurkat cells were cultured in RPMI-1640 medium supplemented with 10% heat-inactivated fetal bovine serum (FBS), penicillin (100 U/mL), and streptomycin (100 μg/mL). Normal lymphocytes were cultured in the same medium supplemented with 10% FBS only. Adhesive cancer cell lines (Colon26, GS9L, MCF7, and U87MG) were cultured in DMEM supplemented with 10% FBS, penicillin (100 U/mL), and streptomycin (100 μg/mL). Adhesive non-cancer cell lines, FHC and MCF10A, were cultured in DMEM-F12 and DMEM, respectively, each supplemented with 10% FBS and growth factors. EOC2 cells were cultured in DMEM supplemented with 10% FBS. All cells were cultured in a humidified atmosphere containing 5% CO2 at 37° C. The adhesive cells were released using a trypsin-EDTA solution (0.05% of trypsin/EDTA) and subsequently washed with PBS. The cells were collected by centrifugation (1,000×g/10 min for leukemia lymphocytes; 1,500×g/15 min for normal lymphocytes; and 800×g/5 min for adhesive cells) and placed in a fresh medium without antibiotics and growth factors prior to treatment with vitamin C and/or compound A6. The cells (1×10^6 cells/mL for non-adhesive and 3×10^5 cells/mL for adhesive) were incubated with vitamin C and/or compound A6 for different time intervals in a cell incubator. At each time interval, aliquots were removed for analyses. For lymphocytes, cell proliferation and viability were analyzed by trypan blue staining and automated counting using a COUNTESS automated cell counter. Briefly, 10 μL of trypan blue (0.4%) was added to 10 μL of a cell suspension and incubated for 30 s, and 10 μL of the cell suspension was placed in a COUNTESS glass chamber. The numbers of live and dead cells in the suspension were counted automatically. The linear range of operation with the automated cell counter was 1×10^4-5×10^6 cells/mL, and the optimal cell size was in the range of […].

Normal lymphocytes = experiment: as above; conditions: Lymphocyte, combination of vitamin C and compound A6 (weight ratio 100:1), concentration of the named component
Description: as §1

[2] = test system: Lymphoma B lymphocytes (Raji); experiment: as above; conditions: Homo sapiens
[3] = test system: Breast cancer cells (MCF7); experiment: Antiproliferative activity, CELLTITER-GLO luminescent cell viability assay; conditions: Homo sapiens, combination of vitamin C and compound A6 (weight ratio 100:1), concentration of the named component
Description: (§2) The antiproliferative activity of vitamin C (L-ascorbic acid) and/or compound A6 was determined in Colon26 (colon cancer), GS9L (glioblastoma), Jurkat (leukemia), MCF7 (breast cancer), and U87MG (glioblastoma). Jurkat cells were cultured in RPMI-1640 medium supplemented with 10% heat-inactivated fetal bovine serum (FBS), penicillin (100 U/mL), and streptomycin (100 μg/mL). Normal lymphocytes were cultured in the same medium supplemented with 10% FBS only. Adhesive cancer cell lines (Colon26, GS9L, MCF7, and U87MG) were cultured in DMEM supplemented with 10% FBS, penicillin (100 U/mL), and streptomycin (100 μg/mL). Adhesive non-cancer cell lines, FHC and MCF10A, were cultured in DMEM-F12 and DMEM, respectively, each supplemented with 10% FBS and growth factors. EOC2 cells were cultured in DMEM supplemented with 10% FBS. All cells were cultured in a humidified atmosphere containing 5% CO2 at 37° C. The adhesive cells were released using a trypsin-EDTA solution (0.05% of trypsin/EDTA) and subsequently washed with PBS. The cells were collected by centrifugation (1,000×g/10 min for leukemia lymphocytes; 1,500×g/15 min for normal lymphocytes; and 800×g/5 min for adhesive cells) and placed in a fresh medium without antibiotics and growth factors prior to treatment with vitamin C and/or compound A6. The cells (1×10^6 cells/mL for non-adhesive and 3×10^5 cells/mL for adhesive) were incubated with vitamin C and/or compound A6 for different time intervals in a cell incubator. At each time interval, aliquots were removed for analyses. For other cell lines, cell proliferation and viability were analyzed using the CELLTITER-GLO luminescent cell viability assay. Briefly, 100 μL aliquots of a cell suspension were placed in a well of a 96-well plate and incubated with vitamin C and/or compound A6 for 24 and 48 h in a humidified atmosphere containing 5% CO2 at 37° C. The CELLTITER-GLO reagent containing luciferin and luciferase (100 μL) was added to each well, followed by incubation. The luminescence produced by the luciferase-catalyzed conversion of luciferin into oxyluciferin by living cells was detected using a microplate reader in a chemiluminescent mode.

[4] = test system: Colon cancer cells (Colon 26); experiment: as above; conditions: Mus musculus
Description: as §2

[5] = test system: Human glioblastoma cells (U87MG); experiment: as above; conditions: U-87 MG, combination of vitamin C and compound A6 (weight ratio 100:1), concentration of the named component
Description: as §2

[6] = test system: Normal breast epithelial cells (MCF10A); experiment: as above; conditions: Homo sapiens, MCF-10A, combination of vitamin C and compound A6 (weight ratio 100:1), concentration of the named component
Description: as §2

[7] = test system: Normal colon epithelial cells (FHC); experiment: as above; conditions: combination of vitamin C and compound A6 (weight ratio 100:1), concentration of the named component
Description: as §2

Normal microglial cells = experiment: as above; conditions: combination of vitamin C and compound A6 (weight ratio 100:1), concentration of the named component
Description: as §2

[8] = combination of vitamin C and compound A6 (weight ratio 100:1), concentration of the named component, read-out: IC50
[9] = compound alone, read-out: IC50 (μM) Jurkat
[10] = compound alone, read-out: IC50 (μM) Raji
[11] = Colon26, compound alone, read-out: IC50 (μM) Colon26

Row | IC50 [1, 8] [µM] | IC50 [1, 9] [µM] | IC50 [2, 8] [µM] | IC50 [2, 10] [µM] | IC50 [3] [µM] | IC50 [4, 11] [µM] | IC50 [4, 8] [µM] | IC50 [5] [µM] | Structure (SMILES) | IC50 (Normal lymphocytes) [µM] | IC50 [6] [µM] | IC50 [7] [µM] | IC50 (Normal microglial cells) [µM]
1 | 300 | 5 | 500 | > 20 | 350 | > 20 | 480 | 1100 | COC1=C(OC)C(=O)C(C)=CC1=O [Compound A6, 2,3-dimethoxy-5-methyl-1,4-benzoquinone] | > 2000 | > 2000 | > 2000 | > 2000
2 | 3 | 2000 | 5 | > 2000 | 3.5 | > 2000 | 4.8 | 11 | O=C1O[C@H]([C@@H](O)CO)C(O)=C1O [Vitamin C, L-ascorbic acid] | > 20 | > 20 | > 20 | > 20
